Source: patent US12502369B2, “Methods of cancer treatment” (K-GEN, INC., priority 2015, dated 2025)
Where two headings read alike, the source gives them in different places.

Experiments:
Assay type in all cases: cell-based
Panc2.13 = test: Proliferation assay (CellTiter Glo), Panc2.13
Procedure: (§1) Briefly, cells at a density of 1,000-10,000 cells/well were seeded in 96-well plates and incubated at 37′C for 24 hours. A series of 9 different concentrations of compound stocks (500×) were created by 3-fold serial dilution in DMSO. These compounds were further diluted in culture media and then added to cells so that the final DMSO concentration was 0.2%. After 96 hours of incubation, 50 μL of CellTiter Glo reagent (Promega) was added to each well and luminescence was measured after 10 minutes using EnVision (PerkinElmer). […] The dose range for most compounds was 4.6 nM-30 μM. The dose ranges for some compounds were adjusted downward to 0.46 nM-3 μM or 0.08 nM-0.5 μM or 0.03 nM-0.2 μM. Luminescence from cells treated with […] alone was set as Max and % of inhibition was calculated as follows: Inhibition %=(Max-Sample value)/Max*100. Data was analyzed using XL-fit software (ID Business Solutions Ltd.) and EC50, relative EC50, and % of top inhibition were calculated. The results are shown in Tables 3-6 for pancreatic cancer, lung cancer, colon/gastric cancer, and leukemia cell lines.

BxPC-3 = test: Proliferation assay (CellTiter Glo), BxPC-3; conditions: BxPC-3 (WT K-ras)
Procedure: as §1, with “calculated.” for “calculated. The results are shown in Tables 3-6 for pancreatic cancer, lung cancer, colon/gastric cancer, and leukemia cell lines.”
(§2) Other cancer cell lines having wild-type K-ras status and K-ras mutation at G12 were also screened using the PKC activator compounds. […] K-104 was tested in a range of 0.03 nM-0.2 μM. […] The dose ranges were adjusted downward to 0.46 nM-3 μM for K-102 and 0.08 nM-0.5 μM for K-103 for some cell lines.

CCRF-CEM = test: Proliferation assay (CellTiter Glo), CCRF-CEM
Procedure: as §1

HT29 = test: Proliferation assay (CellTiter Glo), HT29; conditions: HT29 (WT K-ras)
Procedure: as §1, with “calculated.” for “calculated. The results are shown in Tables 3-6 for pancreatic cancer, lung cancer, colon/gastric cancer, and leukemia cell lines.”
as §2

RPMI8226 = test: Proliferation assay (CellTiter Glo), RPMI8226; conditions: RPMI8226 (K-ras: G12A)
Procedure: as §1, with “calculated.” for “calculated. The results are shown in Tables 3-6 for pancreatic cancer, lung cancer, colon/gastric cancer, and leukemia cell lines.”
as §2

H838 = test: Proliferation assay (CellTiter Glo), H838; conditions: H838 (WT K-ras)
Procedure: as §1, with “calculated.” for “calculated. The results are shown in Tables 3-6 for pancreatic cancer, lung cancer, colon/gastric cancer, and leukemia cell lines.”
as §2

AsPC-1 = test: Proliferation assay (CellTiter Glo), AsPC-1
Procedure: as §1

Panc2.03 = test: Proliferation assay (CellTiter Glo), Panc2.03; conditions: for Top inhibition %: 96 hours
Procedure: as §1

H1915 = test: Proliferation assay (CellTiter Glo), H1915; conditions: H1915 (WT K-ras)
Procedure: as §1, with “calculated.” for “calculated. The results are shown in Tables 3-6 for pancreatic cancer, lung cancer, colon/gastric cancer, and leukemia cell lines.”
as §2

Colo205 = test: Proliferation assay (CellTiter Glo), Colo205; conditions: Colo205 (WT K-ras)
Procedure: as §1, with “calculated.” for “calculated. The results are shown in Tables 3-6 for pancreatic cancer, lung cancer, colon/gastric cancer, and leukemia cell lines.”
as §2

SW900 = test: Proliferation assay (CellTiter Glo), SW900; conditions: SW900 (K-ras: G12V)
Procedure: as §1, with “calculated.” for “calculated. The results are shown in Tables 3-6 for pancreatic cancer, lung cancer, colon/gastric cancer, and leukemia cell lines.”
as §2

KP-4 = test: Proliferation assay (CellTiter Glo), KP-4
Procedure: as §1

MiaPaCa-2 = test: Proliferation assay (CellTiter Glo), MiaPaCa-2
Procedure: as §1, with “calculated.” for “calculated. The results are shown in Tables 3-6 for pancreatic cancer, lung cancer, colon/gastric cancer, and leukemia cell lines.”

AGS = test: Proliferation assay (CellTiter Glo), AGS
Procedure: as §1

H441 = test: Proliferation assay (CellTiter Glo), H441
Procedure: as §1

LS180 = test: Proliferation assay (CellTiter Glo), LS180
Procedure: as §1

HL60 = test: Proliferation assay (CellTiter Glo), HL60
Procedure: as §1

A549 = test: Proliferation assay (CellTiter Glo), A549
Procedure: as §1

H358 = test: Proliferation assay (CellTiter Glo), H358
Procedure: as §1

Capan-1 = test: Proliferation assay (CellTiter Glo), Capan-1
Procedure: as §1

H727 = test: Proliferation assay (CellTiter Glo), H727
Procedure: as §1

SW620 = test: Proliferation assay (CellTiter Glo), SW620
Procedure: as §1

THP1 = test: Proliferation assay (CellTiter Glo), THP1
Procedure: as §1

HCT116 = test: Proliferation assay (CellTiter Glo), HCT116
Procedure: as §1

[1] = tested on: K-Ras mutant pancreatic, lung, and colon cancer cell lines, leukemia cell lines; test: Proliferation assays, panel of cancer cell lines (summary statements)
Procedure: as §1

[2] = absolute EC50, 96 hours, read-out: Ab EC50
[3] = relative EC50, 96 hours, read-out: Re EC50

## CC(=O)O[C@@]12C[C@@H](C)[C@]3(O)C4C=C(C)C(=O)[C@@]4(O)CC(COC(=O)CC(N)C(=O)[O-])=C[C@H]3[C@@H]1C2(C)C.[Na+] (some centres unmarked) [Compound K-101I]
Panc2.13; 96 hours
  Top inhibition %: 48.3%
Panc2.13; [2]
  EC50: > 30 µM
Panc2.13; [3]
  EC50: 0.16 µM
BxPC-3
  Top inhibition %: 38.12%
CCRF-CEM; 96 hours
  Top inhibition %: 37.4%
CCRF-CEM; [2]
  EC50: > 30 µM
CCRF-CEM; [3]
  EC50: 1.51 µM
HT29
  Top inhibition %: 11.8%
RPMI8226
  Top inhibition %: 17.60%
H838
  Top inhibition %: 29.3%
AsPC-1; 96 hours
  Top inhibition %: 25.0%
AsPC-1; [2]
  EC50: > 30 µM
AsPC-1; [3]
  EC50: 6.64 µM
Panc2.03
  Top inhibition %: 26.3%
Panc2.03; [2]
  EC50: > 30 µM
Panc2.03; [3]
  EC50: 6.04 µM
H1915
  Top inhibition %: 16.4%
Colo205
  Top inhibition %: 82.2%
SW900
  Top inhibition %: 10.8%

## CC(=O)O[C@@]12C[C@@H](C)[C@]3(O)C4C=C(C)C(O)[C@@]4(O)CC(CO)=C[C@H]3[C@@H]1C2(C)C (some centres unmarked) [Compound K-101C]
KP-4; 96 hours
  Top inhibition %: 70.4%
KP-4; [2]
  EC50: 11 µM
KP-4; [3]
  EC50: 6.77 µM
MiaPaCa-2; 96 hours
  Top inhibition %: 40.1%
MiaPaCa-2; [2]
  EC50: > 30 µM
MiaPaCa-2; [3]
  EC50: 4.37 µM
AGS; 96 hours
  Top inhibition %: 25.3%
AGS; [2]
  EC50: > 30 µM
AGS; [3]
  EC50: 11 µM
H441; 96 hours
  Top inhibition %: 37.0%
H441; [2]
  EC50: > 30 µM
H441; [3]
  EC50: 7.44 µM
BxPC-3
  Top inhibition %: 36.67%
HT29
  Top inhibition %: 4.8%
RPMI8226
  Top inhibition %: 22.72%
LS180; 96 hours
  Top inhibition %: 6.8%
LS180; [2]
  EC50: > 30 µM
HL60; 96 hours
  Top inhibition %: 63.9%
HL60; [2]
  EC50: 17 µM
HL60; [3]
  EC50: 13 µM
H838
  Top inhibition %: 20.2%
A549; 96 hours
  Top inhibition %: 70.3%
A549; [2]
  EC50: 13 µM
A549; [3]
  EC50: 6.68 µM
H358; 96 hours
  Top inhibition %: 44.0%
H358; [2]
  EC50: > 30 µM
H358; [3]
  EC50: 4.98 µM
Capan-1; 96 hours
  Top inhibition %: 35.7%
Capan-1; [2]
  EC50: > 30 µM
Capan-1; [3]
  EC50: 5.4 µM
H1915
  Top inhibition %: 28.9%
H727; 96 hours
  Top inhibition %: 42.8%
H727; [2]
  EC50: > 30 µM
H727; [3]
  EC50: 3.61 µM
SW620; 96 hours
  Top inhibition %: 0.0%
SW620; [2]
  EC50: > 30 µM
THP1; 96 hours
  Top inhibition %: 51.4%
THP1; [2]
  EC50: 16 µM
THP1; [3]
  EC50: 8.11 µM
Colo205
  Top inhibition %: 73.2%
SW900
  Top inhibition %: 10.9%
HCT116; 96 hours
  Top inhibition %: 12.2%
HCT116; [2]
  EC50: > 30 µM

## CC(=O)O[C@H]1C(=O)[C@@]2(C)[C@H]([C@H](OC(=O)c3ccccc3)[C@]3(O)C[C@H](OC(=O)[C@H](O)[C@@H](NC(=O)c4ccccc4)c4ccccc4)C(C)=C1C3(C)C)[C@]1(OC(C)=O)CO[C@@H]1C[C@@H]2O [Paclitaxel, reference compound]
Panc2.03
  Top inhibition %: 64.6%

## CCC/C=C/C=C/C(=O)O[C@H]1/C(=C/C(=O)OC)C[C@H]2C[C@H]([C@@H](C)O)OC(=O)C[C@H](O)C[C@@H]3C[C@H](OC(C)=O)C(C)(C)[C@](O)(C[C@@H]4C/C(=C/C(=O)OC)C[C@H](/C=C/C(C)(C)[C@]1(O)O2)O4)O3 [Compound K-104, Bryostatin 1]
[1]
  potency in proliferation inhibition relative to prostratin: less potent in proliferation inhibition
[1]; cell lines with wild-type K-ras and K-ras G12 mutations (Table 7)
  activity in cancer cell lines: much lower activity
